Reference: ChEMBL document CHEMBL3596163, “Discovery of imidazo[1,5-a]pyridines and -pyrimidines as potent and selective RORc inverse agonists” (Bioorg Med Chem Lett, 2015)
pEC50, pIC50: −log10 of the molar value. Activity calls are given as the source filed them. The rule behind the calls is not given here.

Assays:
PBMC [1] = assay: Cytotoxicity against human PBMC assessed as effect on cell physiology after 48 hrs by CellTiter-Glo assay; type: cell-based
[2] = Plasma protein binding in rat at 5 uM after 4 hrs by equilibrium dialysis method; type: ADME, cell-free; details: read-out: PPB
[3] = molecular target: T1, Nuclear receptor ROR-gamma (Homo sapiens, UniProt P51449); assay: Inverse agonist activity at N-terminal 6xHis-tagged human RORc ligand binding domain (241 to 486) expressed in bacterial expression system assessed as inhibition of SRC1 co-activator peptide recruitment after 3 hrs by TR-FRET analysis; type: functional
T1 sequence (P51449 whole entry): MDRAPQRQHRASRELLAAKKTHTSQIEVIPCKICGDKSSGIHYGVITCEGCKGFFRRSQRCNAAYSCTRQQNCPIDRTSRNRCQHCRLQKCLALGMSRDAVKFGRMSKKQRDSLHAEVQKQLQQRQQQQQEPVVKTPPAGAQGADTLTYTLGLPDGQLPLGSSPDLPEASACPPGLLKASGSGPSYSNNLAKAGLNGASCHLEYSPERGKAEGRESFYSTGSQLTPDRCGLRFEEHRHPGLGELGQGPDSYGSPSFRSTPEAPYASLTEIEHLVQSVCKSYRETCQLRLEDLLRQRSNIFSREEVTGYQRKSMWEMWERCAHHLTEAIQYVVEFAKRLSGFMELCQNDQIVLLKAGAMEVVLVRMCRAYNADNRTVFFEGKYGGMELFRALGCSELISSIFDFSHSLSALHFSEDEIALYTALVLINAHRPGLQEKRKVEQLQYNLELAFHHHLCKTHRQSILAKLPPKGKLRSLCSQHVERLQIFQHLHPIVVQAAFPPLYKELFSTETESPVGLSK

[4] = molecular target: T2, Peroxisome proliferator-activated receptor gamma (Homo sapiens, UniProt P37231); assay: Displacement of fluormone PPARgamma green from GST-tagged human PPARgamma-LBD after 2 hrs by fluorescence polarization assay
T2 sequence (P37231 whole entry): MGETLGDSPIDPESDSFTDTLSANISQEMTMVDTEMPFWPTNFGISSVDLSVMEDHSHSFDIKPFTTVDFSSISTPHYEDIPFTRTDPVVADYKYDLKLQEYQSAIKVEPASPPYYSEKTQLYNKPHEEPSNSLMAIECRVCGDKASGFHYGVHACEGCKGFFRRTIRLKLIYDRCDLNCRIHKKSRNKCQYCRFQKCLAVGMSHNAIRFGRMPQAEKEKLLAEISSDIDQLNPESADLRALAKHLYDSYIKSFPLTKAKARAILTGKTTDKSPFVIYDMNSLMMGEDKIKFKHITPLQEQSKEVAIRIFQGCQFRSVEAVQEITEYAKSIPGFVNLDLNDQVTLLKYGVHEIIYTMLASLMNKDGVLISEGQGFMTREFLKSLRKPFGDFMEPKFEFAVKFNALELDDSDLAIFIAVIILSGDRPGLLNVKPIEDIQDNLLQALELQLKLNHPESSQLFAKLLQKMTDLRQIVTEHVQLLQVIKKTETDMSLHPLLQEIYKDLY

[5] = molecular target: T1, Nuclear receptor ROR-gamma; assay: Inverse agonist activity at GAL4-fused human RORc expressed in HEK293T cells assessed as suppression of basal transcriptional activity after 20 hrs by dual-glo luciferase reporter gene assay; type: functional, cell-based, HEK-293T
[6] = molecular target: T3, Nuclear receptor ROR-beta (Homo sapiens, UniProt Q92753); assay: Inverse agonist activity at GAL4-fused human RORb expressed in HEK293T cells assessed as suppression of basal transcriptional activity after 20 hrs by dual-glo luciferase reporter gene assay; type: cell-based, HEK-293T
T3 sequence (Q92753 whole entry): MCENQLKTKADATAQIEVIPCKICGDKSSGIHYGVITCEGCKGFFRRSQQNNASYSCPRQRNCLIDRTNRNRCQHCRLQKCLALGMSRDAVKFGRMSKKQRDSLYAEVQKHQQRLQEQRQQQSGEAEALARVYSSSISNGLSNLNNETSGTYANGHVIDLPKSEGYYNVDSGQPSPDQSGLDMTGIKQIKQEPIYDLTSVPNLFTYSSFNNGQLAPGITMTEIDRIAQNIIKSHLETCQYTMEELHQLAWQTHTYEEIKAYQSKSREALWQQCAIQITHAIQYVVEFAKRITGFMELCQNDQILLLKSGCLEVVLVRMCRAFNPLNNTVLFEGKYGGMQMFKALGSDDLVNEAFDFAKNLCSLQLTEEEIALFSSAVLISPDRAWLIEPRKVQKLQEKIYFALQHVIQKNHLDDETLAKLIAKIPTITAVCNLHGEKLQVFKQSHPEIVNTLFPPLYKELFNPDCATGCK

[7] = molecular target: T4, Oxysterols receptor LXR-alpha (Homo sapiens) (UniProt Q13133); assay: Antagonist activity at GAL4-fused human LXRalpha expressed in HEK293T cells assessed as inhibition of T0901317-induced basal transcriptional activity up to 10 uM after 20 hrs by dual-glo luciferase reporter gene assay; type: cell-based; details: HEK-293T
T4 sequence (whole entry): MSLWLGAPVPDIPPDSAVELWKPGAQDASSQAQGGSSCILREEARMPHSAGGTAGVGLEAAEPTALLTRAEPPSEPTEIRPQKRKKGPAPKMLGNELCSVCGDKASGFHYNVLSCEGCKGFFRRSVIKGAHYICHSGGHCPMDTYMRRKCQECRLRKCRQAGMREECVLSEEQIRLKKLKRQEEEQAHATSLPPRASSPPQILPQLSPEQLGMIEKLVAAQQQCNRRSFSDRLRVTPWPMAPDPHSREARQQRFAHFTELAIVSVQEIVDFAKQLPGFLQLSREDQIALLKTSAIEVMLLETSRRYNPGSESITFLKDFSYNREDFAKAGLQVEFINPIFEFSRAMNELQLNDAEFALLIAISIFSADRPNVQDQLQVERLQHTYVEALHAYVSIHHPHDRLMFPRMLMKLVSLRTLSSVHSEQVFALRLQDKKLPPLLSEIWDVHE

[8] = molecular target: T5, Oxysterols receptor LXR-beta (Homo sapiens) (UniProt P55055); assay: Antagonist activity at GAL4-fused human LXRbeta expressed in HEK293T cells assessed as inhibition of T0901317-induced basal transcriptional activity up to 10 uM after 20 hrs by dual-glo luciferase reporter gene assay; type: cell-based; details: HEK-293T
T5 sequence (whole entry): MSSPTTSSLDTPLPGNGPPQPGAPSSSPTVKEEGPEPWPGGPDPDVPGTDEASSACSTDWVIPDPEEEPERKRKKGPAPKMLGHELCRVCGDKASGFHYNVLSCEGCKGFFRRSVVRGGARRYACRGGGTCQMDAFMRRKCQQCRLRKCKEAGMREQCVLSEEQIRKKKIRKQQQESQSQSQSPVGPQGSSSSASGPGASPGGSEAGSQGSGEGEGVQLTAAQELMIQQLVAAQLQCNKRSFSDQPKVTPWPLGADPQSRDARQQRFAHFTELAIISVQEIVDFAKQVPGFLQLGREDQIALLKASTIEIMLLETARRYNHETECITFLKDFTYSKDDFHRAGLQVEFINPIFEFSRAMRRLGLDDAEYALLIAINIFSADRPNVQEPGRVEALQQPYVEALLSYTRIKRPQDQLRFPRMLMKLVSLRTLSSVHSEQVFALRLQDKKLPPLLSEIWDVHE

PBMC [9] = assay: Antiinflammatory activity in human PBMC assessed as inhibition of IL-17 production after 48 hrs by Sandwich ELISA relative to control; type: functional

Row | SMILES | pEC50 (PBMC [1]) | fraction unbound at 4 h, 5 µM [2] | pEC50 [3] | pIC50 [4] | pEC50 [5] | pEC50 [6] | inhibition [7] | inhibition [8] | %max (PBMC [9]) [%]
1 | O=C(O)c1ccc(-c2nc(C(=O)c3c(Cl)cccc3C3CC3)n3cccnc23)cc1O | < 5.00 | 0.01 | 8.70 | 5.47 | 7.89 | < 5.00 | inactive | inactive | 73
2 | O=C(O)c1ccc(-c2nc(C(=O)c3c(Cl)cccc3C(F)(F)F)n3ccccc23)cc1O | < 5.00 | < 0.01 | 8.70 | 6.19 | 8.40 | < 5.00 | inactive | inactive | 70
3 | O=C(O)c1ccc(-c2nc(C(=O)c3c(Cl)cccc3C3CC3)n3c2CCCC3)c(F)c1 | < 5.00 | – | 7.57 | 5.89 | 7.59 | < 5.00 | inactive | inactive | 72
4 | O=C(O)c1ccc(-c2nc(C(=O)c3c(Cl)cccc3C(F)(F)F)n3ccccc23)cc1 | < 5.00 | – | – | – | – | < 5.00 | inactive | inactive | 69
5 | O=C(O)c1ccc(-c2nc(C(=O)c3c(Cl)cccc3C(F)(F)F)n3c2CCCC3)c(F)c1 | < 5.00 | – | 7.49 | 6.12 | 7.44 | < 5.00 | inactive | inactive | 64
6 | O=C(O)c1ccc(-c2nc(C(=O)c3c(Cl)cccc3C(F)(F)F)n3ccccc23)c(F)c1 | < 5.00 | – | 8.05 | 6.49 | 8.00 | < 5.00 | inactive | inactive | 63
